The structures appear in SMILES notation.

In the case of `Cc1ccc(C2CCN(C(=O)CCC(=O)c3ccc4c(c3)CNCC4)CC2)cc1`, the melting point (usually the temperature, or range, at which the solid turns liquid) was in the range of 119 to 120 °C.

In the case of `COCCOc1cc2ncnc(NC3=CC(=O)C(N4CCCCC4)=CC3=O)c2cc1OC`, the melting point was in the range of 197 to 200 °C.

As for `Cc1cnnc2c(-c3ccc(F)cc3)c(-c3ccncc3)nn12`, the melting point lay in the range of 202 to 204 °C.

With `CCOC(=O)CC=NCC(O)COc1ccccc1C#N` (stereo not drawn), the melting point turned out to be 120 °C.

Regarding `CC(C)(C)OC(=O)NCCNC(=O)c1ncccc1Oc1ccc(Cl)cc1`, the melting point was 120 to 122 °C.

Take `NCC(F)(F)C(F)(F)C(F)(F)C(F)(F)CN`: the melting point was 44 to 45 °C.

Take `CNC1N=CN(c2c(C)cccc2Cl)C(=O)N1` (stereo not drawn): the melting point lay in the range of 254 to 256 °C.

`CN1C(=O)C(C(=O)Nc2ccc(Oc3nc(C(F)(F)F)nn3C)cc2)C(=O)N(C)C1=O` returned a melting point of 202 to 204 °C.

Consider `CCN1c2ncc(COc3ccncc3)cc2C(=O)N(C)c2ccc(Cl)nc21`, for which the melting point lay within 169 to 170 °C.

The compound `COC(=O)c1ccc2nc(-c3ccc(C(C)(C)C)cc3)[nH]c2c1` showed a melting point of 152 °C.

Compound `O=C1c2ccccc2C(=O)N1CCSc1nccc(NC(=S)NCC(F)(F)F)n1` came in with a melting point of 238 to 241 °C.

The compound `O=C(O)c1ccc2c(c1F)OC(c1ccccc1)(c1ccccc1)O2` showed a melting point of 189 to 191 °C.

In the case of `O=C(COc1ccc(CCNS(=O)(=O)c2ccccc2)cc1)Nc1ccccc1`, the melting point stood at 123 °C.

Regarding `CN(Cc1ccc(-c2ccc(OCC#N)c(Br)c2)cc1)C(=O)c1cn(C)c2ccccc12`, the melting point is 202 to 206 °C.

In turn, `COc1c(C)cnc(CSc2nc3cc4c(cc3[nH]2)OC(F)C(F)(F)O4)c1C` (stereo not drawn) yielded a melting point of 138 to 140 °C.

In the case of `N#CCCNC(=O)c1cccc(-c2cccc3sc(Cc4cccc(C(F)(F)F)c4)cc23)c1`, the melting point fell in the range of 137 to 138 °C.

`COc1ccc(-c2nc(Sc3ccc(F)cc3F)[nH]c2-c2ccc(OC)cc2)cc1` showed a melting point of 174 to 176 °C.

Compound `C=CCOc1ccc2nc(OCC=C(C)C)ccc2c1` had a melting point of 53 to 54 °C.

As for `COC(=O)C1=C(C)NC(c2scnc2C)=NC1c1ccc(F)cc1Cl` (stereo not drawn), the melting point was 145 to 147 °C.

As for `COC(=O)Nc1nc(-c2ccccc2)c(-c2nc3ccccc3c(=O)n2-c2ccccc2Cl)s1`, the melting point is greater than 275 °C.

For the compound `C=CCOc1ccc2c(=O)c(C)c(-c3ccccc3)oc2c1C(=O)C=Cc1ccccc1`, the melting point lay within 145 to 147 °C.

Consider `O=c1ccc(-c2c(-c3ccccc3)nn3ccccc23)c[nH]1`, for which the melting point lay within 222 to 224 °C.

With `NS(=O)(=O)c1cccc(C=NO)c1`, the melting point lay in the range of 107 to 108 °C.

As for `CCCn1c(=O)c2c(NC)n[nH]c2n(Cc2ccccc2)c1=O`, the melting point is 307 to 310 °C.

For the compound `NC(N)=Nc1nc(-c2cccc(-c3n[nH]c(N)n3)n2)cs1`, the melting point is greater than 300 °C.

For `O=C(O)c1ccc(OCc2ccccc2OCc2ccccc2)cc1`, the melting point lay in the range of 177 to 179 °C.

`Nc1nc(N)c2cc(Cc3ccc(Cl)cc3)ccc2n1` gave a melting point of 224 to 225 °C.

`CCOc1c(Nc2ccc(C#N)cc2)c(=O)c1=O` gave a melting point of 218 to 222 °C.

On to `Fc1ccc(C(c2ccc(OCc3ccccc3)cc2)C(c2ccccc2)C(F)(F)F)cc1` (stereo not drawn), for which the melting point was in the range of 111 to 114 °C.

For the compound `CC(C)c1cccc(C(C)C)c1NS(=O)(=O)CC(=O)NC(c1ccccc1)c1ccccc1`, the melting point lay in the range of 166 to 167 °C.

In turn, `O=c1[nH]c(=O)n(CCCN2CCN(C(c3ccccc3)c3ccccc3)CC2)c2ccccc12` had a melting point of 261 to 264 °C.

Turning to `Cc1ccc(C(O)(c2ccc(C)cc2)[C@H](C)n2ccnc2)cc1`, the melting point was 194 to 196 °C.

In the case of `CC(=O)Oc1ccc2c(c1)cc(C(=O)O)n2C(C)=O`, the melting point lay in the range of 142 to 145 °C.

`CC(=O)Nc1ccc(OCC2CCN(c3ccncc3)CC2)cc1` had a melting point of 226 to 228 °C.

As to `CCCN(c1nc(-c2ccc(OC)cc2Cl)c(C)s1)c1cc(N)ccc1OC`, the melting point amounted to 89 °C.

In the case of `Cc1nc(N)nc(N)c1-c1cc(Cl)c([N+](=O)[O-])c(Cl)c1Cl`, the melting point was 313 to 315 °C.

`CC(C)Nc1cccnc1N1CCN(C(=O)c2ccc(C(=O)N(C(C)C)C(C)C)cc2)CC1` came in with a melting point of 152 to 153 °C.

For the compound `COc1ccccc1N1CCN(CCC(C(=O)NCCN2CCOCC2)c2ccccc2)CC1` (stereo not drawn), the melting point was 60 to 65 °C.

For the compound `Cc1cccnc1NN`, the melting point stood at 119 °C.

For `COC(=O)NCC1Cc2cc(Cl)c3ccccc3c2O1` (stereo not drawn), the melting point lay in the range of 128 to 130 °C.

In the case of `COc1ccc2oc(-c3nc4c(s3)NCCCC4C(C)=O)cc2c1` (stereo not drawn), the melting point is 147 to 149 °C.

Regarding `CC(C)CCOc1c(Cl)c(Sc2ccccc2N)c(OCCC(C)C)c2c1C(=N)NC2=N`, the melting point was 175 to 176 °C.

Compound `COc1cc(N)ccc1S(=O)(=O)n1c(=O)n(C2CCCCCC2)c2cc(Cl)ccc21` gave a melting point of 219 °C.

In turn, `COc1cccc([C@H]2O[C@H](CC(=O)NS(=O)(=O)CCCO)C(=O)N(CC(C)(C)CO)c3ccc(Cl)cc32)c1OC` showed a melting point of 133 to 135 °C.

`COc1ccc2c(c1)-c1c(ccn1C[C@@H](C)O)C2` registered a melting point of 75 °C.

For the compound `Fc1cc(OC2CCOCC2)c2c(Nc3c(Cl)ccc4c3OCO4)ncnc2c1`, the melting point lay in the range of 209 to 212 °C.

For the compound `COc1ccc(N2CCc3ccccc32)c([N+](=O)[O-])c1`, the melting point was 88 to 90 °C.

The compound `N#Cc1ccc(-c2cccc(OS(N)(=O)=O)c2)cc1Cn1cncn1` returned a melting point of 137 to 138 °C.

Turning to `COc1cc2c(cc1OC)C(=CN1CCN(C)CC1)C(=O)N2`, the melting point is 154 to 156 °C.

In turn, `CN1C(=O)N(c2cc(Cl)cc(Cl)c2)C(=O)/C1=C\c1ccc(C#N)cc1` showed a melting point of 239 to 241 °C.

In turn, `COc1cccc(Nc2ccnc(Nc3cc(OC)c(OC)c(OCc4ccccc4)c3)n2)c1` showed a melting point of 83 to 84 °C.

In the case of `O=C(CN1C(=O)CNC1=O)OCc1ccccc1`, the melting point fell in the range of 142 to 144 °C.

In turn, `N#CCCNC(=O)c1cccc(-c2ccc3c(c2)C(c2ccc(Cl)cc2Cl)CC3)c1` (stereo not drawn) came in with a melting point of 112 to 114 °C.

`COc1ccccc1N1CCN(CC(O)CCl)CC1` (stereo not drawn) came in with a melting point of 96 to 98 °C.

The compound `Nc1cc(C(=O)CCCCCl)cc2c1OCC2` displayed a melting point of 129 to 131 °C.

Compound `Cc1cc(O)nc(C(Cl)(Cl)Cl)n1` showed a melting point of 173 to 174 °C.

`CCCCc1cnc(-c2ccc(C#N)c(F)c2)nc1`: the melting point worked out at 87 °C.

On to `CC(C)C1CCN(Cc2ccc(COc3cccc4c3CN(C3CCC(=O)NC3=O)C4=O)cc2)CC1` (stereo not drawn), for which the melting point was in the range of 124 to 126 °C.

Compound `CCOC(=O)c1cnc2sc(Br)c(C)c2c1O` gave a melting point of 214 to 216 °C.

Consider `COC(=O)c1ccccc1S(=O)(=O)NC(=O)n1nc(C)n(C2CCCC2)c1=O`, for which the melting point was determined as 146 °C.

The compound `COc1cc2c(cc1OC)N(C(=O)c1ccc(-c3ccccc3C(F)(F)F)c(C)c1)Cc1ccc(C(=O)N(CCO)CCO)n1C2` displayed a melting point of 130 to 132 °C.

Regarding `O=C1NC(=O)C(=Cc2ccc(OCCNc3nc4ccccc4o3)cc2)S1`, the melting point was in the range of 242 to 245 °C.

The compound `O=C(O)CCn1c(=S)sc2ccccc21` yielded a melting point of 164 to 165 °C.

Compound `COC(=O)C(C)OC(=O)c1cc(-n2c(=O)cc(C(F)(F)F)n(C)c2=O)c(F)cc1Cl` (stereo not drawn) gave a melting point of 102 to 104 °C.

In turn, `CC(=O)Oc1ccccc1C(=O)OCCSS(C)(=O)=O` showed a melting point of 90 to 91 °C.

As for `CC(c1ccccc1)N1C(=O)NC(=O)C1O` (stereo not drawn), the melting point lay in the range of 139 to 140 °C.

As for `Cn1cncc1COc1nn2c(-c3ccccc3)nnc2cc1-c1ccccc1`, the melting point is 195 to 196 °C.

With `c1ccc(Cc2nc(C3CCCCC3)oc2CN2CCc3c([nH]c4ccccc34)C2)cc1`, the melting point was 200 to 201 °C.

As for `Cc1ccc(-n2c(-c3ccc(S(C)(=O)=O)cc3)nc(O)c(C#N)c2=O)cc1C`, the melting point was greater than 285 °C.

On to `CCCc1c(OC(C)c2cccc(C(=O)O)c2)ccc(C(C)=O)c1O` (stereo not drawn), for which the melting point is 101 to 103 °C.

For the compound `CON(C)Cc1nc2c(N)nc3ccccc3c2n1CC1(O)CCC1`, the melting point was 219 to 221 °C.

`O=C(NCC(=O)N1c2ccccc2N(Cc2ccccc2)C(=O)[C@H]2CCC[C@H]21)c1cccnc1` (relative stereo) returned a melting point of 189 to 191 °C.

`CCC(=O)c1cc(C2(c3cccc(-c4cccnc4F)c3)N=C(N)N(C)C2=O)cs1` (stereo not drawn) showed a melting point of 98 to 112 °C.

In the case of `COC(=O)C(C)(SC)c1ccc(C(OC)(OC)c2ccccc2)s1` (stereo not drawn), the melting point was 61.5 to 62.5 °C.

`CCCCCC[C@H](F)CO`: the melting point was 33 to 35 °C.

As for `COc1nc2cc(Cl)c(Cl)c(N(CC(C)O)S(C)(=O)=O)c2nc1OC` (racemic), the melting point was 176 to 177 °C.

For `CCCn1c(=O)c2c(N)n(C(=O)OC)nc2c2ccccc21`, the melting point is 180 to 184 °C.

`CCCc1nc2c(N)nc3cc(Br)ccc3c2n1CCCON=C(C)C` registered a melting point of 182 to 183 °C.

As to `O=C1c2c(Cl)cccc2-n2cnc(-c3nc(CN4Cc5ccccc5C4)no3)c2[C@@H]2CCN12`, the melting point lay in the range of 170 to 175 °C.

`O=C(O)CCCCCCCCn1c(-c2ccccc2)nc(-c2ccccc2)c1-c1ccccc1` came in with a melting point of 149 to 150 °C.

Compound `COC(=O)NNC(=S)CC1CCCCO1` (stereo not drawn) had a melting point of 110 °C.

`Cc1csc(-c2nnc(NC(C)c3ccccc3)c3ccccc23)c1` (stereo not drawn): the melting point lay within 118 to 121 °C.

On to `COc1ccc(Cn2cnc3c(-c4ccco4)nc(S(C)(=O)=O)nc32)cc1`, for which the melting point lay within 184 to 185 °C.

In the case of `CCOC(=O)C1CCN(c2nc(CCl)c(C)s2)CC1`, the melting point was 76 to 77 °C.

As for `CCOc1c(NCc2ccc(C#N)c(CC)c2)c(=O)c1=O`, the melting point is 239 to 242 °C.

`CCCC(=O)c1cnc2ccc(OC)cc2c1Cl` showed a melting point of 73 to 75 °C.

`Cc1cc(-c2ccco2)ccc1C(=O)CC(=O)C(F)(F)F`: the melting point was 135 to 137 °C.

Turning to `CCOC(=O)[C@H](C[C@H](Cc1ccc(OC)c(OCCCOC)c1)C(C)C)NC(=O)OC(C)(C)C`, the melting point was 59 to 60 °C.

These data come from a melting point compilation (Tetko et al.; mined from patent text by program, amines drawn as free bases though some values may be those of a salt).
